Source: patent US4029805A, “Semisynthetic penicillins” (Hoffmann-La Roche Inc., priority 1976, dated 1977)
Structures can show the parent of a compound that is named as a salt. Where two headings read alike, the source gives them in different places.

Columns and labels:
S. typhosa [1] = experiment: Curative dose against systemic S. typhosa infection; type: in vivo, mice; conditions: Mus musculus, sc, read-out: CD50 (the source's name)
D. pneumoniae = experiment: Curative dose against systemic D. pneumoniae infection; type: in vivo, mice; conditions: Streptococcus pneumoniae, in Mus musculus, read-out: CD50 (the source's name)
K. pneumoniae = experiment: Curative dose against systemic K. pneumoniae infection; type: in vivo, mice; conditions: Klebsiella pneumoniae, in Mus musculus, read-out: CD50 (the source's name)
S. pyogenes = experiment: Curative dose against systemic S. pyogenes infection; type: in vivo, mice; conditions: Streptococcus pyogenes, in Mus musculus, read-out: CD50 (the source's name)
E. coli [2] = experiment: Curative dose against systemic E. coli infection; type: in vivo, mice; conditions: Escherichia coli, in Mus musculus, read-out: CD50 (the source's name)
S. schottmuelleri = experiment: Curative dose against systemic S. schottmuelleri infection; type: in vivo, mice; conditions: Mus musculus, read-out: CD50 (the source's name)
S. typhosa [3] = experiment: Curative dose against systemic S. typhosa infection; type: in vivo, mice; conditions: Mus musculus, po, read-out: CD50 (the source's name)
Description: (§1) In order to illustrate the relative activity of the compounds of this invention as compared to amoxicillin, the compounds, represented by the acetaldehyde derivative, were tested orally against systemic bacterial infections of mice with the following results. The CD50 is the curative dose in 50% of the animals treated against a challenge organism.

[4] = Stability in aqueous solution at room temperature, microbiological assay using B. subtilis; conditions: water
Description: To illustrate the relative stability of the compounds of this invention in aqueous solution at room temperature the sodium salts of the compounds were tested as 20% by weight aqueous solutions for activity by microbiological assay using B. subtilis as the test organism and compared to 10% and 20% aqueous solutions of amoxicillin sodium salt and 10% aqueous solution of the acetone derivative of amoxicillin.

physchem = type: physicochemical; conditions: 5% dextrose solution, read-out: antibacterial activity retained in a 24 hour period
Description: The antibacterial activity retained in a 24 hour period by the acetaldehyde derivative when dissolved in 5% dextrose solutions at 0.5 and 1.0% concentration is 83% and 80% respectively. The sodium salt of amoxicillin retains less than 40% activity under the same conditions.

S. aureus = experiment: Curative dose against systemic S. aureus infection; type: in vivo, mice; conditions: Staphylococcus aureus, in Mus musculus, read-out: CD50 (the source's name)
E. coli [5] = experiment: Curative dose against systemic E. coli infection; type: in vivo, mice; conditions: Escherichia coli, in Mus musculus, po
Description: as §1

[6] = Table 3(b), acetaldehyde derivative comparison
[7] = Table 3(b), po, acetaldehyde derivative comparison
[8] = Table 3(b), sc, acetaldehyde derivative comparison
[9] = butyraldehyde derivative comparison
[10] = po, butyraldehyde derivative comparison
[11] = sc, butyraldehyde derivative comparison

CC1N[C@H](c2ccc(O)cc2)C(=O)N1[C@@H]1C(=O)N2[C@@H]1SC(C)(C)[C@@H]2C(=O)O (stereo partly drawn) [Acetaldehyde derivative]
ED50 (S. typhosa [1]; [6]): 6.5 mg/kg
ED50 (D. pneumoniae; [7]): 12 mg/kg
ED50 (D. pneumoniae; [8]): 0.76 mg/kg
ED50 (K. pneumoniae; [7]): 17 mg/kg
ED50 (K. pneumoniae; [8]): 11 mg/kg
ED50 (S. pyogenes; [7]): 1.7 mg/kg
ED50 (S. pyogenes; [8]): < 0.05 mg/kg
ED50 (E. coli [2]; sc, Table 3(b), sc, acetaldehyde derivative comparison): 6.9 mg/kg
ED50 (S. schottmuelleri; [7]): 6.4 mg/kg
ED50 (S. schottmuelleri; [8]): 3.4 mg/kg
LD50 (in vivo; ip): 9200 mg/kg
LD50 (in vivo; po): > 10000 mg/kg
LD50 (in vivo; sc): > 10000 mg/kg
ED50 (S. typhosa [3]; [6]): 8.8 mg/kg
remaining at 1 h [4]: 100%
remaining at 2 h [4]: 99%
remaining at 4 h [4]: 99%
remaining at 6 h [4]: 98%
remaining at 6.5 h [4]: 98%
remaining at 24 h [4]: 94%
remaining at 24 h (physchem; 0.5% concentration): 83%
remaining at 24 h (physchem; 1.0% concentration): 80%
ED50 (S. aureus; [7]): 0.77 mg/kg
ED50 (S. aureus; [8]): 1.3 mg/kg
ED50 (E. coli [5]; Table 3(b), acetaldehyde derivative comparison, read-out: CD50 (the source's name)): 4.6 mg/kg
ED50 (E. coli [5]; read-out: CD50, Table 2, PO, mice): 5 mg/kg

CC1(C)S[C@@H]2[C@H](NC(=O)[C@H](N)c3ccc(O)cc3)C(=O)N2[C@H]1C(=O)O [Amoxicillin sodium salt]
remaining at 1 h [4]: 100%
remaining at 2 h [4]: 91%
remaining at 4 h [4]: 65%
remaining at 6 h [4]: 59%
remaining at 6.5 h [4]: 58%
remaining at 24 h [4]: 38%
remaining at 24 h (physchem; 5% dextrose solutions, same conditions (0.5 and 1.0%)): < 40%

CCCC1N[C@H](c2ccc(O)cc2)C(=O)N1[C@@H]1C(=O)N2[C@@H]1SC(C)(C)[C@@H]2C(=O)O (stereo partly drawn) [Butyraldehyde derivative]
ED50 (S. typhosa [1]; [9]): 0.85 mg/kg
ED50 (D. pneumoniae; [10]): 2.1 mg/kg
ED50 (D. pneumoniae; [11]): 2.5 mg/kg
ED50 (K. pneumoniae; [10]): 46 mg/kg
ED50 (K. pneumoniae; [11]): 16 mg/kg
ED50 (S. pyogenes; [10]): < 0.05 mg/kg
ED50 (S. pyogenes; [11]): 0.01 mg/kg
ED50 (E. coli [2]; [10]): 12 mg/kg
ED50 (E. coli [2]; [11]): 3.9 mg/kg
ED50 (S. schottmuelleri; [10]): 5.7 mg/kg
ED50 (S. schottmuelleri; [11]): 3.2 mg/kg
LD50 (in vivo; ip): 7270 mg/kg
LD50 (in vivo; po): > 10000 mg/kg
LD50 (in vivo; sc): 10000 mg/kg
ED50 (S. typhosa [3]; [9]): 2.9 mg/kg
remaining at 1 h [4]: 95%
remaining at 2 h [4]: 83%
remaining at 6 h [4]: 83%
remaining at 24 h [4]: 70%
ED50 (S. aureus; [10]): 0.2 mg/kg
ED50 (S. aureus; [11]): 0.11 mg/kg
